Experimental data reported in PMC5936786, “Discovery of Natural Products as Novel and Potent FXR Antagonists by Virtual Screening” (Frontiers in Chemistry, 2018).
pEC50, pIC50: −log10 of the molar value. “Also recorded” adds a separate entry of the source. Read-outs that look alike come from different tables or passages of the source.

Assays:
[1] = tested on: FXR; conditions: FXR antagonist, cited from earlier work
[2] = target: T1, hFXR-LBD (interaction with coactivator SRC-1) (Homo sapiens, UniProt Q96RI1); experiment: Y2H antagonist assay: inhibition of CDCA-induced SRC-1 recruitment to FXR-LBD (α-galactosidase readout); conditions: for antagonistic activity against FXR (in words): coactivator recruitment assay; for inhibition at 25 µM: read-out: Inhibition rate % (25 μM), 25 μM compound plus 10 μM CDCA, 24 h, average of triplicate
T1 sequence (Q96RI1 200-472 isoform Q96RI1-2): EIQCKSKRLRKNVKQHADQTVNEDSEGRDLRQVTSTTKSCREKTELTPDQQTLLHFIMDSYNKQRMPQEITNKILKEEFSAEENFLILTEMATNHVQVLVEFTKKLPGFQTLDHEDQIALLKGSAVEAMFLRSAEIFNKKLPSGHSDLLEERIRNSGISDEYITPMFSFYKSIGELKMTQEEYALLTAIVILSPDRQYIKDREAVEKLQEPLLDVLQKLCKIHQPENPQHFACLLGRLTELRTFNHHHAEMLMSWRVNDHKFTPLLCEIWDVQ
Procedure: We performed Y2H assay to determine the agonistic or antagonistic activities of the compounds. […] The quantitative α-galactosidase activity assays were carried out by using PNP-α-Gal as the substrate according to the Clontech manual. Each experiment was repeated three times independently.
• Vortex the overnight culture tube for 0.5–1 min to disperse cell clumps and then each sample needs 200 μL to record the exact OD600. • Centrifuge the tube at 14,000 rpm (10,000 × g) for 30 s. Incubate 16 μL cell culture medium supernatant with 48 μL PNP-α-Gal at 30°C for 60 min. Be sure to cover microtiter plates with a lid or parafilm to prevent evaporation. • Terminate the reaction by adding 136 μL of 1 μM sodium carbonate. Record the optical density of each sample at 410 nm.
The α-galactosidase activity was calculated according to the following formula:
α−galactosidase activity[milliunits/(mL×cell)]​ ​​​=OD410×Vf×1000/(ε×b)×t×Vi×OD600
The agonistic activation and inhibition rates (%) were calculated as follows:

[3] = target: T2, hFXR-LBD (interaction with coactivator SRC-1) (Homo sapiens, UniProt Q96RI1); experiment: Y2H agonist assay: SRC-1 recruitment to FXR-LBD (α-galactosidase readout); assay type: cell-based; conditions: GAtreated/GADMSO (DMSO = 1.00), average of triplicate
T2 construct: human FXRα-LBD (200-473 AA) was sub-cloned into vector pGBKT-7; expressed in transfected cells; host or cells: Saccharomyces cerevisiae strain AH109 (Clontech), co-transformed with pGBKT7-FXR LBD and pGADT7-SRC-1
T2 sequence (Q96RI1 214-486): T1 sequence (Q96RI1 200-472 isoform Q96RI1-2)
Text: Each experiment was repeated three times independently.
agonistic activation=GAtreated/GADMSOinhibition rate(%)=GACDCA−GAtreated/GACDCA−GADMSO
where GA indicates α-galactosidase activity.

[4] = tested on: estrogen receptor (ER); conditions: cited from earlier work; for agonistic profiles against ER (in words): ref Cao et al., 2013
[5] = tested on: FXR; parameters: method as in Xu et al., 2015; conditions: FXR antagonist; ref Xu et al., 2015; cited from earlier work
[6] = tested on: FXR; conditions: cited from earlier work
[7] = tested on: FXR; conditions: FXR antagonist, cited from earlier work; remark: listed apart in the source
[8] = tested on: FXR; parameters: method as in Dussault et al., 2003; conditions: FXR antagonist; ref Dussault et al., 2003; cited from earlier work

Structure (SMILES) | pIC50 [2] | Agonistic activation (25 μM) [3] | antagonistic activity against FXR (in words) [2] | inhibition at 25 µM [2] [%] | also measured
COc1cc(/C=C2\C(=O)N(c3cccc([N+](=O)[O-])c3)N=C2c2ccccc2)ccc1O [Compound 11] | – | – | – | – | pIC50 ([1]; ref Huang et al., 2012): 5.05
CC(C)(O)c1ccc2c(c1)C(=O)CC1[C@](C)(C(=O)O)CCC[C@]21C (stereo partly drawn) [Compound 2a, 15-Hydroxy-7-oxo-8,11,13-abietatrien-18-oic acid] | 5.89 | 1.05 | – | – | fold stronger antagonistic activity compared with compound 1a ([2]; vs compound 1a): 10 fold
C/C(=C/C(=O)C[C@@H](C)[C@]1(C)CC[C@@]2(C)C3=CCC4C(C)(C)[C@H](O)CC[C@]4(C)[C@@H]3CC=C21)C(=O)O (stereo partly drawn) [Compound 1a, Abiesatrine B] | 4.87 | 1.09 | moderate antagonistic activity | > 50 | agonistic effect against estrogen receptor (ER) (in words) ([4]; reported in a previous study, no reference given): moderate agonistic effect
CCOC(=O)c1ccc(O)cc1 [Compound 3e, Ethylparaben] | 4.71 | 0.93 | moderate antagonistic activities; also recorded: moderate antagonistic effects | 60.1 | agonistic profiles against ER (in words) [4]: agonistic profiles
C/C(=C/C(=O)C[C@@H](C)[C@H]1CC[C@@]2(C)C3=CCC4C(C)(C)C(=O)CC[C@]4(C)C3CC[C@]12C)C(=O)O (stereo partly drawn) [Compound 1b, (24Z)-3,23-Dioxo-9βH-lanosta-7,24-dien-27-oic acid] | < 4.60 | 1.12 | no detectable antagonistic activity | 22.7 | –
CCCCC/C=C/C=C1/C=CC(=O)[C@@H]1C/C=C\CCCC(=O)O [Compound 17] | – | – | – | – | pIC50 ([1]; ref Xu et al., 2013): 5.14
O=C(/C=C/CCc1ccccc1)c1ccc(O)cc1 [Compound 3c, Daphnenone] | 5.26 | 1.29 | – | > 50 | –
O=C(CCCCc1ccccc1)c1ccc(O)cc1 [Compound 3a, Daphneone] | 5.75 | 1.03 | – | – | fold higher antagonistic activity against FXR compared to guggulsterone [2]: 3 fold
CN(C)c1cc(Cl)c(C(=O)N(Cc2ccccc2)c2ccc(O)c(C(C)(C)C)c2)c(Cl)c1 [Compound 18, N-benzyl-N-(3-(tert-butyl)-4-hydroxyphenyl)-2,6-dichloro-4-(dimethylamino) benzamide] | – | – | – | – | pIC50 [5]: 5.47
O=C(CC(O)CCc1ccccc1)c1ccc(O)cc1 (stereo not drawn) [Compound 3b, Daphneolon] | < 4.60 | 0.76 | – | 41.4 | –
O=C(O)C=Cc1ccc(O)cc1 [Compound 3d, P-coumaric acid] | 4.85 | 1.08 | moderate antagonistic activities; also recorded: moderate antagonistic effects | 52.8 | agonistic profiles against ER (in words) [4]: agonistic profiles
CC1(CO)CCCC2(C)C1CCC1(C)C2CC(O)C2(C)C3COC(=O)C3=CCC12 (stereo not drawn) [Compound 8] | – | – | – | – | pIC50 ([7]; ref Nam et al., 2007): 5.62
CCCCCCCc1c(\C(C)=C/C=C/C(C)=C/C(=O)O)cc(C(C)C)cc1C(C)C [Compound 14] | – | – | – | – | pIC50 [8]: 6.52
CC(=O)c1ccc2c(c1)C(=O)CC1[C@](C)(C(=O)O)CCC[C@]21C (stereo partly drawn) [Compound 2b, 17-Nor-7,15-dion-8,11,13-abietatrien-18-oic acid] | < 4.60 | 0.90 | no observed activity | 10.1 | –
CC(C)=CCCC1=C[C@@H](C/C(C)=C/CC[C@@]2(C)C=Cc3cc(O)cc(C)c3O2)OC1=O [Compound 10] | – | – | – | – | pIC50 ([7]; ref Choi et al., 2011): 5.82
C/C(=C\CC[C@@H](C)[C@H]1CC[C@@]2(C)C3=CCC4C(C)(C)C(=O)CC[C@]4(C)C3CC[C@]12C)C(=O)O (stereo partly drawn) [Compound 1c, Abiesatrine D] | < 4.60 | 0.93 | no detectable antagonistic activity | 12.8 | –
COC(=O)/C=C/c1cccc(N(Cc2ccc(-c3ccc(N(C)C)cc3)cc2)C(=O)C2CCCCC2)c1 [Fexeramine, Fexaramine] | – | – | – | – | pEC50 ([6]; reported FXR modulators, Figure 1, reference not given, read-out: EC50, FXR agonists (Figure 1)): 7.60
